# Measurements from patent US8455397B2, “Penoxsulam as a turfgrass, vineyard and orchard floor herbicide” (Dow AgroSciences, LLC, priority 2005, dated 2013).
# Columns and labels:
# yellow nutsedge (CYPES) = test: Granule carrier/particle size, post emergence greenhouse study; assay type: in vivo, Cypres esculentus L.; details: postemergent greenhouse
# Description: (§1) Greenhouse and field studies evaluated the effect of two granule carriers and two particles sizes on the postemergent broadleaf activity of penoxsulam. The two carriers were a 46-0-0 and 28-4-12 fertilizer blend and the particle sizes averaged 0.75 mm and 2.15 mm.
# (§2) Greenhouse studies were applied both post and pre-emergence to broadleaf weeds and sedge reared from seed or nutlet in 12.7″ (32.25 cm) by 8.8″ (22.35 cm) flats of a loam soil. Particle size and carrier were evaluated post emergence, carrier comparisons with the smaller particle size of 0.75 was evaluated pre-emergence. Stage of growth of species at post emergence application: PLAMA and TAROF in the 3 to 5 leaf stage, TRFRE in the 3rd tri-foliate stage and CYPES in the 3 to 4 leaf stage. Post emergence trial design was a replicated block, one species per flat, 3 replicate flats per treatment. Granule treatments were uniformly applied to individual flats on an area basis using a common hand-shaker method. Post emergence applications were made to the flat covering both soil and misted foliage. Trial was sub-irrigated daily, and watered over the top 1 time per week starting 7 days after application to simulate a natural rainfall event. Active weed growth was maintained throughout the study period. Weed control of each species in the post emergence study was assessed at 2, 3 and 4 weeks after treatment. Pre-emergence trial design was 2 species per flat, 4 replicate flats, block design. Pre-emergence applications were made to the soil surface using a common hand shaker method on an area basis. Overhead irrigation was maintained throughout the trial. Weed control of each species in the pre-emergence study was assessed at 2, 3, 4 and 5 weeks after application. Control was determined visually by comparing treated and untreated flats and scored on a 0 to 100 percent scale where 0 corresponds to no control and 100 corresponds to complete kill.
# redroot pigweed (AMARE) = test: Pre-emergence weed nursery field study; assay type: in vivo, Amaranthus retroflexus; details: weed nursery in the field, 27 Days After Application
# Description: (§3) Field studies were conducted in a non-fumigated weed nursery trial. Weed species were planted in single strips with a row planter at 36 centimeter spacing. Plot size was 3.05×9.2 meters, 4 replicate plots per treatment. Weed species were seeded at appropriate depths and later the same day pre-emergent applications were made to the soil surface. Liquid applications were made using a backpack sprayer calibrated to deliver 187 liters per hectare (L/ha). Applications were made in Fresno, Calif. in June. Sprinkler irrigation was applied at regular intervals throughout study period. Control of each weed species in the study site was made 4 weeks after treatment. Control was determined visually by comparing treated and untreated weeds and scored on a 0 to 100 percent scale where 0 corresponds to no control and 100 corresponds to complete kill or no emergence.
# [1] = tested on: vine and orchard floor weeds; test: Vine and orchard floor weed control (general statement); assay type: in vivo; details: APESV, AMARE, POROL, SETFA, ECHCG, ECHCO, SSYIR, SINAR, EPHHE, EROCI, MALNE, MALPA, SONOL, SENVU
# giant foxtail (SETFA) = test: Pre-emergence weed nursery field study; assay type: in vivo, Setaria faberi; details: weed nursery in the field, 27 Days After Application
# Description: as §3
# dandelion (TAROF) = test: Granule carrier/particle size, post emergence greenhouse study; assay type: in vivo, Taraxacum officinale; details: postemergent greenhouse
# Description: as §1, §2
# white clover (TRFRE) = test: as above; assay type: in vivo, Trifolium repens L.; details: postemergent greenhouse
# Description: as §1, §2
# [2] = tested on: broadleaf plantain (PLAMA); test: Granule carrier comparison, pre-emergence greenhouse study; assay type: in vivo, Plantago major L.; details: pre-emergent greenhouse
# Description: as §1, §2
# [3] = tested on: annual sowthistle (SONOL); test: Pre-emergence orchard floor weeds, greenhouse study; assay type: in vivo, Sonchus oleraceus; details: 28 Days After Application
# Description: Greenhouse studies were conducted by seeding species in a loam soil and applying the herbicides to the soil surface using a Cornwall 5 milliliter glass syringe fitted with a TeeJet TN-3 nozzle on an area basis Immediately following herbicide application the pots were irrigated over the top to move the herbicides into the seeding zone. Pots were kept well irrigated throughout the trial. A percent visual weed control assessment was taken 4 weeks after application. Control was determined visually by comparing treated and untreated pots and scored on a 0 to 100 percent scale where 0 corresponds to no control and 100 corresponds to complete kill, or no emergence.
# [4] = carrier 28-4-12, particle size 0.75 mm, 5.6 gai/Ha
# [5] = carrier 28-4-12, particle size 0.75 mm, 11.2 gai/Ha
# [6] = carrier 28-4-12, particle size 0.75 mm, 22.4 gai/Ha
# [7] = carrier 28-4-12, particle size 2.15 mm, 5.6 gai/Ha
# [8] = carrier 28-4-12, particle size 2.15 mm, 11.2 gai/Ha
# [9] = carrier 28-4-12, particle size 2.15 mm, 22.4 gai/Ha
# [10] = carrier 46-0-0, particle size 0.75 mm, 5.6 gai/Ha
# [11] = carrier 46-0-0, particle size 0.75 mm, 11.2 gai/Ha
# [12] = carrier 46-0-0, particle size 0.75 mm, 22.4 gai/Ha
# [13] = carrier 46-0-0, particle size 2.15 mm, 5.6 gai/Ha
# [14] = carrier 46-0-0, particle size 2.15 mm, 11.2 gai/Ha
# [15] = carrier 46-0-0, particle size 2.15 mm, 22.4 gai/Ha
smiles,measurement,setting,value
"COc1cnc(OC)n2nc(NS(=O)(=O)c3c(OCC(F)F)cccc3C(F)(F)F)nc12 [Penoxsulam, 2-(2,2-difluoroethoxy)-N-(5,8-dimethoxy[1,2,4]triazolo[1,5-c]-pyrimidin-2-yl)-6-(trifluoromethyl)benzenesulfonamide]",Percent Weed Control 27-30 DAA,yellow nutsedge (CYPES); [4],18%
same,Percent Weed Control 27-30 DAA,yellow nutsedge (CYPES); [5],37%
same,Percent Weed Control 27-30 DAA,yellow nutsedge (CYPES); [6],60%
same,Percent Weed Control 27-30 DAA,yellow nutsedge (CYPES); [7],37%
same,Percent Weed Control 27-30 DAA,yellow nutsedge (CYPES); [8],25%
same,Percent Weed Control 27-30 DAA,yellow nutsedge (CYPES); [9],35%
same,Percent Weed Control 27-30 DAA,yellow nutsedge (CYPES); [10],18%
same,Percent Weed Control 27-30 DAA,yellow nutsedge (CYPES); [11],30%
same,Percent Weed Control 27-30 DAA,yellow nutsedge (CYPES); [12],65%
same,Percent Weed Control 27-30 DAA,yellow nutsedge (CYPES); [13],3%
same,Percent Weed Control 27-30 DAA,yellow nutsedge (CYPES); [14],20%
same,Percent Weed Control 27-30 DAA,yellow nutsedge (CYPES); [15],42%
same,Pre-emergent Percent Mean Control,redroot pigweed (AMARE); 8.8 gai/Ha,100%
same,Pre-emergent Percent Mean Control,redroot pigweed (AMARE); 17.5 gai/Ha,100%
same,Pre-emergent Percent Mean Control,redroot pigweed (AMARE); 35 gai/Ha,100%
same,Pre-emergent Percent Mean Control,redroot pigweed (AMARE); 70 gai/Ha,100%
same,effectiveness in controlling vine and orchard floor weeds,[1],effective
same,Pre-emergent Percent Mean Control,giant foxtail (SETFA); 8.8 gai/Ha,70%
same,Pre-emergent Percent Mean Control,giant foxtail (SETFA); 17.5 gai/Ha,78%
same,Pre-emergent Percent Mean Control,giant foxtail (SETFA); 35 gai/Ha,88%
same,Pre-emergent Percent Mean Control,giant foxtail (SETFA); 70 gai/Ha,96%
same,Percent Weed Control 27-30 DAA,dandelion (TAROF); [4],50%
same,Percent Weed Control 27-30 DAA,dandelion (TAROF); [5],88%
same,Percent Weed Control 27-30 DAA,dandelion (TAROF); [6],97%
same,Percent Weed Control 27-30 DAA,dandelion (TAROF); [7],23%
same,Percent Weed Control 27-30 DAA,dandelion (TAROF); [8],60%
same,Percent Weed Control 27-30 DAA,dandelion (TAROF); [9],68%
same,Percent Weed Control 27-30 DAA,dandelion (TAROF); [10],55%
same,Percent Weed Control 27-30 DAA,dandelion (TAROF); [11],67%
same,Percent Weed Control 27-30 DAA,dandelion (TAROF); [12],98%
same,Percent Weed Control 27-30 DAA,dandelion (TAROF); [13],23%
same,Percent Weed Control 27-30 DAA,dandelion (TAROF); [14],48%
same,Percent Weed Control 27-30 DAA,dandelion (TAROF); [15],60%
same,Percent Weed Control 27-30 DAA,white clover (TRFRE); [4],40%
same,Percent Weed Control 27-30 DAA,white clover (TRFRE); [5],57%
same,Percent Weed Control 27-30 DAA,white clover (TRFRE); [6],68%
same,Percent Weed Control 27-30 DAA,white clover (TRFRE); [7],12%
same,Percent Weed Control 27-30 DAA,white clover (TRFRE); [8],38%
same,Percent Weed Control 27-30 DAA,white clover (TRFRE); [9],58%
same,Percent Weed Control 27-30 DAA,white clover (TRFRE); [10],22%
same,Percent Weed Control 27-30 DAA,white clover (TRFRE); [11],58%
same,Percent Weed Control 27-30 DAA,white clover (TRFRE); [12],72%
same,Percent Weed Control 27-30 DAA,white clover (TRFRE); [13],5%
same,Percent Weed Control 27-30 DAA,white clover (TRFRE); [14],33%
same,Percent Weed Control 27-30 DAA,white clover (TRFRE); [15],37%
same,Percent Weed Control 35 DAA,[2]; [4],72%
same,Percent Weed Control 35 DAA,[2]; [5],82%
same,Percent Weed Control 35 DAA,[2]; [6],100%
same,Percent Weed Control 35 DAA,[2]; [10],76%
same,Percent Weed Control 35 DAA,[2]; [11],87%
same,Percent Weed Control 35 DAA,[2]; [12],94%
same,Pre-emergent Percent Mean Control,[3]; 8.8 gai/Ha,72%
same,Pre-emergent Percent Mean Control,[3]; 17.5 gai/Ha,78%
same,Pre-emergent Percent Mean Control,[3]; 35 gai/Ha,82%
same,Pre-emergent Percent Mean Control,[3]; 70 gai/Ha,87%
